Measured values taken from PMC8533206 (Antioxidants, 2021).
Structures can show the parent of a compound that is named as a salt. Where two headings read alike, the source gives them in different places.

Legend:
[1] = system: MAO-A; settings: cited from earlier work
[2] = system: MAO-B; settings: cited from earlier work; for Selectivity Index (SI): MAO-B over MAO-A, calculated; for % MAO-B Inhibition: single dose 10 μM
[3] = system: PC12 cells; assay: Rotenone-induced ROS generation in PC12 cells (H2-DCFDA); format: cell-based, rat; settings: 5 mM, positive reference
Experimental: (§1) The involvement of oxidative stress in the observed reduction in cell viability was investigated using the fluorescent dye H2-DCFDA as described previously. Briefly, cells were loaded with 10 μM H2-DCFDA for 30 min at 37 °C. Subsequently, cells were exposed for 4 h to 10 μM of test compounds followed by the addition of 50 μM 6-OHDA or 1 μM rotenone for 20 h, and fluorescence was measured spectrophotometrically at 488/520 nm in a microplate reader (SpectraMax M2e). N-acetylcysteine (NAC, 5 mM) was included as a […] control for oxidative stress.

[4] = system: PC12 cells; assay: 6-OHDA-induced ROS generation in PC12 cells (H2-DCFDA); format: cell-based, rat
Experimental: as §1

[5] = Protective effect against 6-OHDA-induced cytotoxicity in PC12 cells (MTT); settings: rat
Experimental: (§2) PC12 cells were routinely maintained in RPMI-1640 media containing 100 IU/mL penicillin, and 100 μg/mL streptomycin supplemented by 10% heat-inactivated HS, 5% FBS in a humidified incubator containing 5% CO2 and 95% air at 37 °C [25]. The cell culture media was changed every two days. To perform experiments, cells were plated on poly-D-lysine/laminin-coated 24-well plates at a density of 3 × 10^5 cells/well and incubated for at least 24 h to allow cell adhesion.
(§3) To examine the effects of the test compounds on cell survival, cells were incubated in low serum media (1% HS, 1% FBS, 100 IU/mL penicillin, and 100 μg/mL streptomycin) with test compounds at the concentrations of 10 and 30 μM or an equivalent volume of vehicle control (DMSO at the final concentration of 0.3%) for 24 h. The media containing test compounds was sonicated at room temperature for 30 min to assure adequate dissolution in the media. […]
(§4) After the desired treatment, cell viability was determined by MTT assay as described previously, with slight modification. […] The absorbance of the dissolved solution was measured at 550 nm using a microplate reader (SpectraMax M2e, Molecular Devices, Sunnyvale, CA, USA). The cell viability was presented as the percentage of the absorbance measured in the vehicle-treated control cells. […]

[6] = system: PC12 cells; assay: Protective effect against rotenone-induced cytotoxicity in PC12 cells (MTT); settings: 1 μM rotenone, 24 h, compared to vehicle-treated control
Experimental: as §2, §3, §4

[7] = biological target: T1, Human recombinant MAO-B (hMAO-B) (Homo sapiens, UniProt P27338); assay: MAO-B inhibition assay (Amplex Red fluorescence, benzylamine substrate); format: biochemical; settings: single dose 10 µM
T1 construct: purchased Sigma-Aldrich; host or cells: insect cells
T1 sequence (P27338 1-520): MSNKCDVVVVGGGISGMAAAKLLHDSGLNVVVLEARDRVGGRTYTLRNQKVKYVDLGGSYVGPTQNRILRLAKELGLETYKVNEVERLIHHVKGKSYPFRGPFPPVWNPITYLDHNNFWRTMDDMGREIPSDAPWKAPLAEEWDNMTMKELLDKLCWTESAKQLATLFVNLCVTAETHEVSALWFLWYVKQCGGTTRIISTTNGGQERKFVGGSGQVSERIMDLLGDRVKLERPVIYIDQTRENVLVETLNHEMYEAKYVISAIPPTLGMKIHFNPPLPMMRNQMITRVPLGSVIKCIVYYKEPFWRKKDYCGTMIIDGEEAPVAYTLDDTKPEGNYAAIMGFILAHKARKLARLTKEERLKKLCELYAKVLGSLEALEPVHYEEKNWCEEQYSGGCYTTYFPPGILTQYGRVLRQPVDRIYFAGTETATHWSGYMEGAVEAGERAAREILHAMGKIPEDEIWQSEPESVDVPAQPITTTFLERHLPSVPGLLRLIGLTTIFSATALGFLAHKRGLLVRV
Experimental: The biological evaluation of the tested compounds over both MAO-A and MAO-B was performed following the previously reported method. The MAO activity was measured in relative fluorescence units (RFU) evoked by peroxidase-catalyzed oxidation of Amplex Red® to resorufin, in which H2O2 generated by MAO reaction was used as the electron donor. Human recombinant MAO-A (hMAO-A) and MAO-B (hMAO-B) enzymes expressed in insect cells were obtained from Sigma-Aldrich. The 2 μL of test compound in DMSO (final concentration: 1–10 μM) was treated with 98 μL of hMAO enzyme solution in 50 mM sodium phosphate buffer (pH 7.4, final protein amounts: ~1.25 μg protein/well for MAO-A and ~2.5 μg protein/well for MAO-B) on 96-well black plate and incubated for 15 min at 37 °C. Then, 100 μL of reaction working solution which is a mixed solution of 400 μM Amplex Red® (Cayman, final concentration: 200 μM), 2 U/mL horseradish peroxidase (Sigma-Aldrich, final concentration: 1 U/mL) and 2 mM substrate (p-tyramine for MAO-A, benzylamine for MAO-B, Sigma-Aldrich, final concentration: 1 mM) in 50 mM sodium phosphate buffer (pH 7.4) were added and incubated for 20 min at 37 °C in the dark. The fluorescent intensity was quantified using a microplate reader (SpectraMax®i3, Molecular Device) with an excitation at 545 nm and an emission at 590 nm. The 50% inhibitory concentrations (IC50) of compounds were determined as the mean ± S.E.M. in triplicate from the dose-response inhibition curves using SigmaPlot® 13.0 (Systat Software Inc., San Jose, CA, USA).

[8] = previously reported indazole derivatives

For O=C(Nc1ccc2[nH]ncc2c1)c1cccc(Cl)c1Cl [V], the IC50 [1, 8] is given as greater than 10 µM and the IC50 [2, 8] is given as 2.59 µM.
For O=C(Nc1ccc2c(ccn2C(=O)c2cccc(F)c2)c1)c1cnccn1 [VIII, N-(1-(3-fluorobenzoyl)-1H-indol-5-yl)pyrazine-2-carboxamide], the IC50 ([1]; previous study) is given as greater than 100 µM, the “Selectivity Index (SI)” value ([2]; previous study) is given as greater than 120 and the IC50 ([2]; previous study) is given as 0.777 µM. The “% MAO-B Inhibition” value ([2]; previous study) was 66.39%.
With CC(=O)N[C@@H](CS)C(=O)O [NAC, N-acetylcysteine, reference compound] the “Effect on rotenone-induced ROS generation” value [3] was “dramatic inhibition of ROS” and the “Effect on 6-OHDA-induced ROS generation” value ([4]; 5 mM, positive reference) was “dramatic inhibition of ROS”.
In the case of COc1ccc2c(c1)[nH]c1c(C)nccc12 [harmine], the IC50 ([1]; selective MAO-A inhibitor) is listed as 0.006 µM.
In the case of O=C(Nc1ccc2c(ccn2Cc2ccc(F)cc2)c1)c1cnccn1 [IX], the IC50 ([1]; previous study) is listed as greater than 100 µM, the IC50 ([2]; previous study) is listed as 1.66 µM and the “% MAO-B Inhibition” value ([2]; previous study) is listed as 88.49%.
For O=C(Nc1ccc2c(ccn2Cc2ccccn2)c1)c1cnccn1 [X], the “% MAO-B Inhibition” value ([2]; previous study) is given as 2.38%.
In the case of O=C(Nc1ccc2[nH]ncc2c1)c1c(F)cccc1Cl [VI], the IC50 [1, 8] is given as greater than 10 µM and the IC50 [2, 8] is given as 3.3 µM.
With NCCc1cc(O)c(O)cc1O [Compound 6-OHDA, 6-Hydroxydopamine, reference compound] the “ROS generation, fold of control cells” value ([4]; 6-OHDA 50 μM, 20 h) was “approximately 4 fold” and the viability at 24 h, 50 μM [5] was 47.5 ± 1.2%.
For Cn1cc(C(=O)Nc2ccc3[nH]ncc3c2)ccc1=O [IV], the IC50 [1, 8] is given as greater than 10 µM and the IC50 [2, 8] is given as greater than 10 µM.
In the case of C=C(C)[C@H]1Cc2c(ccc3c2O[C@@H]2COc4cc(OC)c(OC)cc4[C@@H]2C3=O)O1 [rotenone, reference compound], the “Cell death of PC12 cells exposed to toxin” value [6] is reported as 53.1 ± 2.9%.
For O=C(c1cccc(F)c1)n1ccc2cc(NC(=S)NCc3ccco3)ccc21 [Compound 5f, 1-(1-(3-Fluorobenzoyl)-1H-indol-5-yl)-3-(furan-2-ylmethyl)thiourea], the inhibition at 10 µM [7] was 34.1 ± 0.7% and the melting point was 152.6 to 153.6 °C.
For O=C(c1cccc(F)c1)n1ccc2cc(NC(=S)NCCCl)ccc21 [Compound 5b, 1-(2-Chloroethyl)-3-(1-(3-fluorobenzoyl)-1H-indol-5-yl)thiourea], the inhibition at 10 µM [7] was 45.6 ± 1.2% and the melting point was 221.5 to 222.5 °C.
For Cn1ccc2cc(NC(=O)c3cnccn3)ccc21 [VII], the “% MAO-B Inhibition” value ([2]; previous study) is given as 49.68%.
In the case of O=C(c1cccc(F)c1)n1ccc2cc(NC(=S)Nc3ccc(N4CCOCC4)cc3)ccc21 [Compound 5c, 1-(1-(3-Fluorobenzoyl)-1H-indol-5-yl)-3-(4-morpholinophenyl)thiourea], the inhibition at 10 µM [7] is reported as 43.9 ± 1.1% and the melting point is reported as 192.7 to 193.7 °C.
